Data published in article PMC3157396, “Molecular Basis for the Recognition of Adenomatous Polyposis Coli by the Discs Large 1 Protein” (PLoS ONE, 2011).
Entries after “also recorded” stand apart in the source; their conditions may differ.

Experiments:
[1] = target: T1, PDZ1 domain of DLG1 (residues 220–310) (Homo sapiens, UniProt Q12959); assay: GST pull-down assay, PDZ1; assay type: binding; settings: GST-APC peptide immobilized, 4°C, 25 mM Tris-HCl pH 8.0, 150 mM NaCl, 2 mM DTT, SDS-PAGE, Coomassie Blue
T1 construct: The cDNAs encoding PDZ1 (residues 220–310); His tag (N); made in house; host or cells: E. coli BL21 (DE3)
T1 sequence (Q12959 220-310): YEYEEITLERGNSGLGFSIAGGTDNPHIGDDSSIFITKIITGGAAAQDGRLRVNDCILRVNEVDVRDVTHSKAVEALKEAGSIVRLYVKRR
Text: (§1) The cDNAs encoding PDZ1 (residues 220–310), PDZ2 (residues 315–410), PDZ3 (462–552), and PDZ1-PDZ2 (residues 220–410) domains of human DLG1 were cloned into pET28a (Novagen)-derived vectors and over-expressed as N-terminal His-tagged proteins. The C-terminal 11 residues of human APC (residues 2833–2843, APC-C11, with sequence […]), the C-terminal 4 residues of human APC (residues 2840–2843, APC-C4, sequence VTSV), and residues 2833–2842 of APC (APC-C10, sequence […]) were cloned into the pGEX4T1 (GE Healthcare) vector to be expressed as N-terminal GST-tagged recombinant proteins.
(§2) All proteins except PDZ1-PDZ2 were over-expressed in E. coli strain BL21 (DE3), and PDZ1-PDZ2 was over-expressed in E. coli strain BL21 (RIL). Cells were cultured at 37°C in LB medium and incubated for 20 hours at 18°C with 0.5 mM isopropyl β-D-1-thiogalactopyranoside (IPTG) on reaching OD600 = 0.6. Cells were harvested by centrifugation and resuspended in the binding buffer (Ni^2+-NTA column binding buffer: 25 mM Tris-HCl, pH 8.0, 300 mM NaCl, and 20 mM imidazole; GST column binding buffer: 25 mM Tris-HCl, pH 8.0, 150 mM NaCl, and 2 mM DTT). The cells were lysed by sonication, followed by centrifugation. Supernatants of the cells lysates were purified by Ni^2+-NTA affinity chromatography (Qiagen) or GST affinity chromatography (GE Healthcare). PDZ1, PDZ2, PDZ3, and PDZ1-PDZ2 proteins were then purified by Superdex 200 gel filtration chromatography equilibrated with a buffer containing 20 mM Tris-HCl, pH 8.0, 100 mM NaCl, and 2 mM DTT.
(§3) GST pull-down assays between wild-type (WT) or mutant APC peptides and WT or mutant PDZ domain proteins were performed according to standard procedures. […] The bound proteins were eluted with the GST column elution buffer (50 mM Tris-HCl, pH 8.0, 150 mM NaCl, and 7 mM glutathione), and then analyzed by SDS-PAGE and Coomassie Blue staining.

[2] = test system: PDZ1-PDZ2 of DLG1 (residues 220–410); assay: GST pull-down assay, PDZ1-PDZ2; assay type: binding, human; settings: GST-APC peptide immobilized, 4°C, 25 mM Tris-HCl pH 8.0, 150 mM NaCl, 2 mM DTT, SDS-PAGE, Coomassie Blue
Text: as §1
All proteins except PDZ1-PDZ2 were over-expressed in E. coli strain BL21 (DE3), and PDZ1-PDZ2 was over-expressed in E. coli strain BL21 (RIL). Cells were cultured at 37°C in LB medium and incubated for 20 hours at 18°C with 0.5 mM isopropyl β-D-1-thiogalactopyranoside (IPTG) on reaching OD600 = 0.6. […]
as §3

[3] = target: T2, PDZ2 domain of DLG1 (residues 315–410) (Homo sapiens, UniProt Q12959); assay: GST pull-down assay, PDZ2; assay type: binding; settings: for binding in GST pull-down (in words): PDZ2 (WT), GST-APC peptide immobilized, 4°C, 25 mM Tris-HCl pH 8.0, 150 mM NaCl, 2 mM DTT, SDS-PAGE, Coomassie Blue
T2 construct: PDZ2 (residues 315–410); His tag (N); made in house; host or cells: E. coli BL21 (DE3)
T2 sequence (Q12959 315-410): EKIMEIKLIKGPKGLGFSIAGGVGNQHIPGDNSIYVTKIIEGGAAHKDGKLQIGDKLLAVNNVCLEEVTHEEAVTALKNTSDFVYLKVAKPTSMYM
Text: as §1, §2, §3

[4] = target: T1, PDZ1 domain of DLG1 (residues 220–310); assay: ITC, PDZ1 titrated into GST-tagged APC peptides; assay type: binding; settings: 25°C, 50 mM HEPES pH 7.5, 100 mM NaCl
Text: as §1, §2
(§4) Isothermal titration calorimetry (ITC) experiments were performed using an ITC200 system (GE Healthcare) at 25°C. The buffer contained 50 mM HEPES, pH 7.5, and 100 mM NaCl. Proteins were centrifuged and degassed before the experiment. Typically, a WT or mutant DLG1 PDZ domain protein (400 µM) was injected 20 times in 2 µl aliquots into a 300 µl sample cell containing GST-tagged APC-C11 or APC-C4 protein (40 µM). Data were fit with a nonlinear least-square routine using a single site binding model with Origin for ITC version 7.0 (MicroCal), varying the stoichiometry (n), the enthalpy of the reaction (ΔH), and the association constant (K a).

[5] = target: T2, PDZ2 domain of DLG1 (residues 315–410); assay: ITC, PDZ2 titrated into GST-tagged APC peptides; assay type: binding; settings: 25°C, 50 mM HEPES pH 7.5, 100 mM NaCl
Text: as §1, §2, §4

[6] = target: T3, PDZ2 Δ339–346 (DLG1) (Homo sapiens, UniProt Q12959, DEL339-346); assay: ITC, PDZ2 Δ339–346 titrated into GST-APC-C11; assay type: binding; settings: 25°C, 50 mM HEPES pH 7.5, 100 mM NaCl
T3 construct: PDZ2 (residues 315–410); His tag (N); made in house; host or cells: E. coli BL21 (DE3)
T3 sequence (Q12959 with tags, fused parts or gaps DEL339-346): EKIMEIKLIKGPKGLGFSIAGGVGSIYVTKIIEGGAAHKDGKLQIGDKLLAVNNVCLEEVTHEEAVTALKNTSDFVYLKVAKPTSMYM
Text: (§5) The 3D structures of the three PDZ domains of DLG1 have been determined in the free forms [13]–[15]. They share very similar structures, and the ligand binding pockets are also conserved. […] The residues in the β2/β3 loops of PDZ domains in other proteins have also been implicated in determining their target ligand binding affinities, [18]. In order to know whether the β2/β3 loop also plays an important role in the interaction between APC and DLG1, we created a similar mutant of PDZ2 deleting residues 339–346.
as §1
Isothermal titration calorimetry (ITC) experiments were performed using an ITC200 system (GE Healthcare) at 25°C. The buffer contained 50 mM HEPES, pH 7.5, and 100 mM NaCl. Proteins were centrifuged and degassed before the experiment. […]

[7] = target: T4, PDZ3 domain of DLG1 (Homo sapiens, UniProt Q12959); assay: ITC, PDZ3 titrated into GST-APC-C11; assay type: binding; settings: 25°C, 50 mM HEPES pH 7.5, 100 mM NaCl
T4 construct: PDZ3 (462–552); His tag (N); made in house; host or cells: E. coli BL21 (DE3)
T4 sequence (Q12959 462-552): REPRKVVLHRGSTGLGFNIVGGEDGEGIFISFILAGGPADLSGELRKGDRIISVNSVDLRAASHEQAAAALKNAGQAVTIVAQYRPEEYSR
Text: as §1
as §2, with “PDZ1, PDZ2, PDZ3, and PDZ1-PDZ2 proteins were then purified by Superdex 200 gel filtration chromatography equilibrated with a buffer containing 20 mM Tris-HCl, pH 8.0, 100 mM NaCl, and 2 mM DTT.” left out

[8] = target: T5, PDZ2 Q340P (DLG1) (Homo sapiens, UniProt Q12959, Q340P); assay: GST pull-down assay, PDZ2 Q340P; assay type: binding; settings: PDZ2 Q340P vs WT PDZ2; GST-APC-C11 immobilized, 4°C; 25 mM Tris-HCl pH 8.0, 150 mM NaCl, 2 mM DTT
T5 construct: PDZ2 (residues 315–410); His tag (N); made in house; host or cells: E. coli BL21 (DE3)
T5 sequence (Q12959 315-410 Q340P): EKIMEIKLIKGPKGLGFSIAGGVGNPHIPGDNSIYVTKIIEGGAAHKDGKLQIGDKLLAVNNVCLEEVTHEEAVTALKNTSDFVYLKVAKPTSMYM
Text: as §1, §3

[9] = target: T5, PDZ2 Q340P (DLG1); assay: ITC, PDZ2 Q340P titrated into GST-APC-C11; assay type: binding; settings: 25°C, 50 mM HEPES pH 7.5, 100 mM NaCl
Text: as §1, §4

[10] = target: T3, PDZ2 Δ339–346 (DLG1); assay: GST pull-down assay, PDZ2 Δ339–346; assay type: binding; settings: PDZ2 Δ339–346 vs WT PDZ2; GST-APC-C11 immobilized, 4°C; 25 mM Tris-HCl pH 8.0, 150 mM NaCl, 2 mM DTT
Text: as §5, §1
GST pull-down assays between wild-type (WT) or mutant APC peptides and WT or mutant PDZ domain proteins were performed according to standard procedures. […]

[11] = test system: PDZ1 and PDZ2 domains of PSD-95; settings: cited from earlier work
Text: The 3D structures of the three PDZ domains of DLG1 have been determined in the free forms [13]–[15]. They share very similar structures, and the ligand binding pockets are also conserved. […] The residues in the β2/β3 loop ...

[12] = test system: P245Q mutation in PDZ1 of DLG1; settings: cited from earlier work
Text: This residue difference might account for the higher affinity between PDZ2 and APC.

Substance: VTSV [APC-C4]
- binding in GST pull-down (in words) [1]: significantly weaker compared to GST-APC-C11
- binding in GST pull-down (in words) [2]: significantly weaker compared to GST-APC-C11
- binding in GST pull-down (in words) [3]: significantly weaker compared to GST-APC-C11
- interaction / heat of reaction by ITC (in words) ([4]; PDZ1, listed as GST-APC-C4): no detectable heat of reaction; also recorded: no detectable interaction was observed
- interaction / heat of reaction by ITC (in words) ([5]; PDZ2, listed as GST-APC-C4): no detectable heat of reaction; also recorded: no detectable interaction was observed

Substance: RHSGSYLVTSV [APC-C11]
- interaction / heat of reaction by ITC (in words) [6]: no detectable heat of reaction
- interaction / heat of reaction by ITC (in words) ([6]; listed as GST-APC-C11): no detectable interaction was observed
- interaction / heat of reaction by ITC (in words) [7]: no detectable interaction was observed
- binding in GST pull-down (in words) [8]: greatly diminished the association; also recorded: substantially weaker interaction
- DLG/APC ratio ([9]; 400 µM PDZ2 Q340P into 40 µM GST-APC-C11, single site binding model): 1.04±0.03
- TΔS ([9]; PDZ2 Q340P into GST-APC-C11): 0.0793 kcal/mol
- ΔH ([9]; PDZ2 Q340P into GST-APC-C11, negative = exothermic): -6.76 ± 0.27 kcal/mol
- binding in GST pull-down (in words) [10]: significantly decreases the interaction; also recorded: dramatically decreased the interaction
- binding in GST pull-down (in words) [1]: somewhat weaker, but detectable binding
- binding in GST pull-down (in words) [2]: bound most strongly
- binding in GST pull-down (in words) [3]: stronger than that between PDZ1 and APC-C11
- binding in GST pull-down (in words) ([3]; listed as GST-APC-C11): bound most strongly
- binding in GST pull-down in crystallization-like buffer (in words) ([3]; PDZ2, buffer similar to the condition in which PDZ2/APC-C11 crystallized, data not shown): weaker than that between PDZ1 and APC-C11
- DLG/APC ratio ([4]; 400 µM PDZ1 into 40 µM GST-tagged APC peptide, single site binding model): 0.918±0.127
- TΔS ([4]; PDZ1 into GST-tagged APC peptide): 2.44 kcal/mol
- ΔH ([4]; PDZ1 into GST-tagged APC peptide, negative = exothermic): -4.02 ± 0.82 kcal/mol
- DLG/APC ratio ([5]; 400 µM PDZ2 into 40 µM GST-tagged APC peptide, single site binding model): 0.916±0.018
- TΔS ([5]; PDZ2 into GST-tagged APC peptide): 1.07 kcal/mol
- ΔH ([5]; PDZ2 into GST-tagged APC peptide, negative = exothermic): -7.09 ± 0.19 kcal/mol

Substance: RHSGSYLVTS [APC-C10]
- binding in GST pull-down (in words) [1]: no interaction could be observed
- binding in GST pull-down (in words) [3]: no interaction could be observed

Substance: NR2B: NR2B subunit of NMDA receptors
- change of binding affinity on deletion of six residues from the β2/β3 loops (in words) [11]: decreases the binding affinity
- fold increase in binding affinity for NR2B [12]: 2 fold
